Here are results for 13 molecules from ChEMBL document CHEMBL1201862, “PubChem BioAssay data set” (2004).

Some test systems named below: A549; HCC 2998; HT-29; NCI-H226; NCI-H23; OVCAR-5; OVCAR-8; RXF 393; SF-268; SF-539; SK-OV-3; SNB-75; SW-620; UACC-62; ACHN; EKVX; M14.
Test in all cases: DTP human tumour cell line panel, 48 h

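Following 48 hours of exposure in 96-well plates, responses at five concentrations were used to interpolate endpoints linearly. Abbreviation: GI50, concentration required for 50% inhibition of growth.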 Calls of active or inactive are those of the source. No stated cut-off is given here; in the data, active = GI50 up to about 1.1 µM and inactive = higher. Where a SMILES comes first, the peptide text is derived from it.

Take `CCS(=O)(=O)Nc1ccc(Nc2c3ccccc3nc3ccccc23)c(OC)c1`: the GI50 (as a rule, the concentration at which growth is held to half of that of the control) with A549 is 0.0205 µM (active); in the assay with HCC 2998 it was 1.72 µM (inactive); with HT-29 it was 1.07 µM (active); in the assay on NCI-H226 it was 0.331 µM (active); in the assay with NCI-H23, 0.203 µM (active); in the assay on OVCAR-5, 3.23 µM (inactive). The GI50 in the assay with OVCAR-8 is 0.885 µM (active); with RXF 393, 1.99 µM (inactive); with SF-268 it was 0.421 µM (active); with SF-539, 0.295 µM (active); in the assay on SK-OV-3 it was 0.203 µM (active); with SNB-75, 0.284 µM (active). Further, the values for the GI50 with SW-620 and in the assay on UACC-62 were 0.527 µM (active) and 0.416 µM (active), respectively.
On to `O=C(CC1(O)C(=O)Nc2c(Cl)cccc21)c1ccccc1` (stereo not given), for which the GI50 in the assay on A549 is > 100 µM (inactive); in the assay on ACHN, > 100 µM (inactive); in the assay with EKVX it was > 100 µM (inactive); with HCC 2998, > 100 µM (inactive); in the assay on HT-29, 84.7 µM (inactive); in the assay with M14, > 100 µM (inactive). Besides, the GI50 in the assay with NCI-H226, in the assay with NCI-H23, in the assay with OVCAR-5, with OVCAR-8, with RXF 393 and in the assay on SF-268 was > 100 µM (inactive) in each case. The GI50 with SK-OV-3 was > 100 µM (inactive); in the assay on SNB-75, 85.9 µM (inactive); in the assay with SW-620 it was 76.4 µM (inactive).
As to `COc1cccc(/C=C2\CCC(C)(CN(C)C)C2=O)c1` (stereo not given), the GI50 is > 100 µM (inactive) in the assay with A549; 98.9 µM (inactive) in the assay on ACHN; 46.5 µM (inactive) in the assay on EKVX; > 100 µM (inactive) in the assay with HCC 2998; 53.3 µM (inactive) with HT-29; > 100 µM (inactive) with M14. The GI50 in the assay on NCI-H226, in the assay with NCI-H23, in the assay on OVCAR-5, in the assay on OVCAR-8, in the assay on RXF 393 and in the assay on SF-268 was > 100 µM (inactive) in each case. Besides, the GI50 with SF-539 is > 100 µM (inactive); in the assay on SNB-75, > 100 µM (inactive); in the assay on SW-620, 57 µM (inactive); with UACC-62 it was > 100 µM (inactive).
Take `CN1C(c2ccccc2)CC(=Nc2ccccc2)CC1c1ccccc1` (stereo not given): the GI50 in the assay on A549 was 11.5 µM (inactive); in the assay with EKVX it was 16.2 µM (inactive); in the assay on HT-29, 8.67 µM (inactive); with M14, 13.5 µM (inactive); in the assay with NCI-H226, 11.7 µM (inactive); in the assay on NCI-H23 it was 15.6 µM (inactive). Also, the GI50 with OVCAR-8 was 6.97 µM (inactive); in the assay on RXF 393, 16.6 µM (inactive); in the assay with SF-268, 10.8 µM (inactive); in the assay with SK-OV-3, 2.95 µM (inactive); in the assay on SNB-75 it was 16.7 µM (inactive); with SW-620 it was 10.8 µM (inactive).
As to `CN(C)c1cccc(OC(=O)NCCCl)c1`, the GI50 in the assay on A549, with EKVX, in the assay with HCC 2998, with HT-29, with NCI-H226 and with NCI-H23 was > 100 µM (inactive) throughout. In addition, the GI50 with OVCAR-5 was > 100 µM (inactive); with OVCAR-8 it was > 100 µM (inactive); with SF-268, > 100 µM (inactive); in the assay on SF-539, > 100 µM (inactive); in the assay on SK-OV-3, > 100 µM (inactive); in the assay with SNB-75, 63.8 µM (inactive). The GI50 in the assay with SW-620 and with UACC-62 was > 100 µM (inactive) throughout.
For the molecule `CCC1=C(C)/C(=C/c2[nH]c(CBr)c(CC)c2C)N=C1CBr`, the GI50 in the assay on A549 was 18.4 µM (inactive); with ACHN it was > 10 µM (inactive); in the assay with EKVX, 21.7 µM (inactive); with HCC 2998, 12.2 µM (inactive); in the assay on HT-29, 12.5 µM (inactive); in the assay with M14 it was 16.5 µM (inactive). Moreover, the GI50 in the assay with NCI-H23 is 14.6 µM (inactive); in the assay on OVCAR-5 it was > 10 µM (inactive); in the assay with OVCAR-8, 7.23 µM (inactive); in the assay with RXF 393, 12.1 µM (inactive); in the assay with SF-268 it was 13.7 µM (inactive); in the assay on SF-539, 18.7 µM (inactive). In addition, the GI50 is 19 µM (inactive) in the assay on SK-OV-3, 29.6 µM (inactive) with SNB-75, 12.2 µM (inactive) with SW-620 and 6.05 µM (inactive) with UACC-62.
As to `CCOC(=O)C(Sc1ccccc1)c1c(OC)cc(=O)oc1/C=[N+](/[O-])c1ccc(N(C)C)cc1` (stereo not given), the GI50 in the assay with A549 was 28.4 µM (inactive); with ACHN, > 10 µM (inactive); in the assay on EKVX it was 33.3 µM (inactive); in the assay with HCC 2998 it was 23.9 µM (inactive); with HT-29, 16.3 µM (inactive); with M14 it was 16.2 µM (inactive). The GI50 in the assay on NCI-H23 was 27.5 µM (inactive); in the assay with OVCAR-5, 46 µM (inactive); in the assay on OVCAR-8, 18.4 µM (inactive); in the assay with RXF 393 it was 16.2 µM (inactive); with SF-268, 31.5 µM (inactive); in the assay on SF-539, 24.4 µM (inactive). The GI50 is 75.7 µM (inactive) in the assay on SK-OV-3, 31.3 µM (inactive) in the assay on SNB-75, 14.7 µM (inactive) in the assay with SW-620 and 22.6 µM (inactive) with UACC-62.
In the case of `C=C1CCC2C(C)(CO)C(O)CCC2(C)C1CC(O)/C(=C/CO)C(=O)O` (stereo not given), the GI50 with A549, in the assay with ACHN, with HCC 2998, in the assay with HT-29, in the assay with M14 and in the assay with OVCAR-5 was > 100 µM (inactive) in each case. For the same molecule, the GI50 with OVCAR-8, with RXF 393, in the assay on SF-268, in the assay on SF-539, in the assay on SK-OV-3 and in the assay with SNB-75 was > 100 µM (inactive) each time. For the same molecule, the GI50 in the assay on SW-620 and in the assay with UACC-62 was > 100 µM (inactive) in each case.
As to `CC1=C(C(=O)Nc2ccccc2)C(c2ccccc2Cl)C(C(=O)Nc2ccccc2)=C(C)N1`, the GI50 in the assay on A549 is 41.6 µM (inactive); with ACHN, 30.5 µM (inactive); with EKVX, 14.3 µM (inactive); with HCC 2998 it was 21.2 µM (inactive); with HT-29, 21 µM (inactive); in the assay on M14, 16.6 µM (inactive). The GI50 with NCI-H226 was 22.2 µM (inactive); in the assay on NCI-H23 it was 26.4 µM (inactive); with OVCAR-5, 24.3 µM (inactive); in the assay with OVCAR-8, 29.4 µM (inactive); in the assay with SF-268, 24.4 µM (inactive); in the assay on SF-539, 20 µM (inactive). Besides, the GI50 with SK-OV-3 is 37.1 µM (inactive); with SNB-75 it was 28.1 µM (inactive); in the assay with SW-620, 30.7 µM (inactive); in the assay on UACC-62, 13.6 µM (inactive).
As to `Cc1nc2c(=O)n(C)c(=O)nc-2n(-c2ccc(Cl)cc2)c1C`, the GI50 with A549 is > 100 µM (inactive); in the assay with ACHN it was 58.6 µM (inactive); with EKVX, > 100 µM (inactive); in the assay with HCC 2998, > 100 µM (inactive); with HT-29, > 100 µM (inactive); in the assay on M14 it was 82.6 µM (inactive). Also, the GI50 in the assay on NCI-H226, in the assay on NCI-H23, in the assay with OVCAR-5, in the assay on OVCAR-8, with SF-268 and in the assay with SF-539 was > 100 µM (inactive) in each case. Moreover, the GI50 in the assay on SK-OV-3 was > 100 µM (inactive); in the assay on SNB-75 it was > 100 µM (inactive); in the assay on SW-620, > 100 µM (inactive); in the assay with UACC-62 it was 43.9 µM (inactive).
In the case of `O=C(O)c1cc2c(ncc3c(=O)n(-c4ccccc4)[nH]c32)s1`, the GI50 in the assay on A549, with ACHN, in the assay on EKVX, in the assay with HCC 2998, in the assay with HT-29 and with M14 was > 100 µM (inactive) in each case. Further, the GI50 with NCI-H226, with NCI-H23, in the assay with OVCAR-5, in the assay on OVCAR-8, in the assay on RXF 393 and in the assay with SF-268 was > 100 µM (inactive) in each case. The GI50 in the assay with SF-539, in the assay on SK-OV-3, in the assay with SW-620 and with UACC-62 was > 100 µM (inactive) in each case.
As to `COc1cccc(-n2c3nc(=O)n(C)c(=O)c-3nc3ccccc32)c1`, the GI50 in the assay on A549 is 12.6 µM (inactive); with ACHN, 3.18 µM (inactive); with EKVX, 29.8 µM (inactive); in the assay with HCC 2998, 3.88 µM (inactive); in the assay on HT-29, 4.55 µM (inactive); in the assay on M14, 11.7 µM (inactive). Also, the GI50 is 17.7 µM (inactive) in the assay with NCI-H226; 15.7 µM (inactive) in the assay with NCI-H23; 19.2 µM (inactive) in the assay on OVCAR-5; 14.6 µM (inactive) with OVCAR-8; 16.7 µM (inactive) in the assay on SF-268; 12.4 µM (inactive) in the assay on SF-539. In addition, the GI50 in the assay with SK-OV-3 is > 100 µM (inactive); in the assay on SNB-75 it was 19.6 µM (inactive); in the assay on SW-620, 5.09 µM (inactive); in the assay on UACC-62, 4.06 µM (inactive).
As to `CC1NC(=O)CNC(=O)CNC(=O)C(Cc2ccc(O)cc2)NC(=O)C(C(C)C)NC(=O)C(C)NC1=O` (stereo not given) (cyclo(GGAAVY); configuration not given here), the GI50 in the assay with A549, in the assay on EKVX, in the assay on HCC 2998, in the assay with HT-29, in the assay with NCI-H226 and with NCI-H23 was > 100 µM (inactive) each time. Besides, the GI50 with OVCAR-5, in the assay with OVCAR-8, in the assay with SF-268, with SF-539, in the assay on SK-OV-3 and with SNB-75 was > 100 µM (inactive) in each case. The GI50 in the assay with SW-620 and in the assay on UACC-62 was > 100 µM (inactive) in each case.
